# From BindingDB's records for doi:10.7270/Q2QR4VJR (Nmmlsc, 2010)
# Molecular target: T1, Regulator of G-protein signaling 16 (Homo sapiens, UniProt O15492)
# T1 sequence (O15492 whole entry): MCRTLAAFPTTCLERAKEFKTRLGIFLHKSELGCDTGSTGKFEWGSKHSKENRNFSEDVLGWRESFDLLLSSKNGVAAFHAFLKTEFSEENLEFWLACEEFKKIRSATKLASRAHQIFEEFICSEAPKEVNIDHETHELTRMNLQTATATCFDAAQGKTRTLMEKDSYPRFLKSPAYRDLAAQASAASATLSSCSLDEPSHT
# Assay: small molecules altering RGS16 interaction with Galphao – biochemical, multiplexed bead flow cytometry, SAR compounds, SAR follow-up (AID 2298)
row,Ki [µM],SMILES
1,0.02,"NS(=O)(=O)c1ccc(N=NCc2ccc(O)c(O)c2O)c([N+](=O)[O-])c1 [4-[[(E)-(2,3-dihydroxy-4-oxo-1-cyclohexa-2,5-dienylidene)methyl]hydrazo]-3-nitrobenzenesulfonamide]"
2,0.1,O=C1C(Cl)=C(N2CCCCC2)C(=O)C(Cl)=C1c1cnc(N2CCCCC2)s1 [MLS000550549]
